Reference: patent US10568899B2, “Combinations of a mithramycin analogue and another chemotherapeutic agent for the treatment of triple negative breast cancer” (ENTRECHEM, S.L., priority 2015, dated 2020)

Assays:
MDA-MB-231 cells = assay: MTT-based cell proliferation assay, single drugs and combinations (CI by CalcuSyn)
Procedure: (§1) All cell lines were cultured at 37° C. in a humidified atmosphere in the presence of a mixture of 5% CO2 and 95% air. Cells were grown in DMEM or in RPMI medium containing high glucose concentration (4,500 mg/liter) and antibiotics (penicillin at 100 mU/ml, streptomycin at 100 μg/ml) and supplemented with 10% FBS. Cell lines were provided by Drs. J. Losada and A. Balmain, (originally from Dr. J. W. Gray's Laboratory who in turn obtained them from the ATCC or from collections development in the laboratories of Drs. S. Ethier and A. Gazdar, to avoid errors occurring when obtained through “second-hand” sources) [Cancer Cell. (2006) 10:515-527]. Cell identities were verified by STR analyses [Oncogene (2014) 33:148-156].
(§2) Cells were plated in 24-well plates at 10,000-20,000 cells/well and cultured overnight in DMEM or RPMI+10% FBS. […] Cell proliferation was analyzed 48 and 72 hours later by an MTT-based assay as described in Cancer Res. (2005) 65:6801-6810.
(§3) Results are plotted as the mean±SD values of quadruplicates from two experiments.
(§4) To explore whether F(I) potentiated the action of drugs used in the therapy of TNBC, drug combination experiments were performed, and the results analyzed by the Chou and Talalay algorithm [Adv. Enzyme Regul.

HBL-100 cells = assay: as above
Procedure: as §1, §2, §3, §4

[1] = Body weight of treated mice; type: in vivo
Procedure: (§5) Mice were manipulated at the animal facility of the CIC in Salamanca following legal guidelines. Female BALB/c nu/nu mice (7 weeks old) were obtained from Charles River Laboratories (Wilmington, Mass., USA). A total of 5×10^6 MDA-MB231 cells in 100 μL of DMEM and 100 μL of Matrigel (BD Biosciences) were injected subcutaneously into the right and left flank of each mouse. When tumours reached a mean volume of 100 mm^3, animals (n=32) were randomized into four groups (with equal average tumour volumes) (vehicle n=8, F(I) n=8, docetaxel n=8, and F(I)+docetaxel n=8). Mice were treated every four days intravenously with 12 mg/kg of F(I), and weekly, intraperitoneally with docetaxel 15 mg/kg. Tumour diameters were serially measured by callipers twice per week and tumour volumes were calculated by the following formula: volume=width^2×length/2. Mice were sacrificed on day 41. For biochemical and drug accumulation analyses, tumor samples were obtained after sacrifice of the animals by CO2 inhalation, and 6 hours after being treated with the different drugs, and immediately frozen in liquid nitrogen. The tumors were minced, washed with PBS, and homogenized (Dispomix, L&M Biotech, Holly Springs, N.C., USA) in ice-cold lysis buffer (1.5 mL/100 mg tumor). This homogenate was centrifuged at 10,000×g for 20 minutes at 4° C., and the supernatants were transferred to new tubes. […]

[2] = test system: TNBC cell lines (HCC-70, HCC-3153, BT549, MDA-MB-231, HCC-1937, HBL-100, HCC-1187 and HS578T); assay: MTT metabolism in panel of TNBC cell lines; type: cell-based
Procedure: as §1
Cells were plated in 24-well plates at 10,000-20,000 cells/well and cultured overnight in DMEM or RPMI+10% FBS. The next day medium was replaced with DMEM or RPMI containing different concentrations of F(I). Cell proliferation was analyzed 48 and 72 hours later by an MTT-based assay as described in Cancer Res. (2005) 65:6801-6810. […]
To analyze the potential antineoplastic effect of F(I) on TNBC, its action on a panel of eight representative TNBC cell lines (HCC-70, HCC-3153, BT549, MDA-MB-231 (MDAMB231), HCC-1937, HBL-100 (HBL100), HCC-1187 and HS578T) using MTT metabolism as readout of the effect of F(I) on cell number was evaluated. […]

[3] = cited from earlier work
[4] = F(I) concentration in the tumors; type: in vivo; settings: 6 hours after the last treatment, F(I) 12 mg/kg intravenously, two tumors from two different mice
Procedure: as §5

[5] = test system: MDA-MB-231 xenografted tumors; assay: Xenograft study, tumour volume; type: in vivo, mice; settings: F(I) 12 mg/kg intravenously every 3 days; FIG. 2
Procedure: as §5, with “Mice were treated every four days intravenously with 12 mg/kg of F(I), and weekly, intraperitoneally with docetaxel 15 mg/kg.” left out, “tumor).” for “tumor). This homogenate was centrifuged at 10,000×g for 20 minutes at 4° C., and the supernatants were transferred to new tubes.”
Comparisons of continuous variables between two groups for the mice tumor model experiments were performed using a two-sided Student's t-test. […] All data were analyzed using the statistical software SPSS 21.0 (SPSS Inc., Chicago, Ill.). […]

In the case of `Cc1nc(Nc2ncc(C(=O)Nc3c(C)cccc3Cl)s2)cc(N2CCN(CCO)CC2)n1` [Dasatinib, dasatinib], the “MTT metabolism mean, Assay 1” value (MDA-MB-231 cells; Dasatinib 0.5 μM alone) is reported as 65.29%, the “MTT metabolism mean, Assay 2” value (MDA-MB-231 cells; Dasatinib 0.5 μM alone) is reported as 62.89% and the “MTT metabolism mean, Assay 1” value (MDA-MB-231 cells; Dasatinib 1.0 μM alone) is reported as 59.58%. For the same compound, the “MTT metabolism mean, Assay 2” value (MDA-MB-231 cells; Dasatinib 1.0 μM alone) was 63.07%, the “MTT metabolism mean, Assay 1” value (MDA-MB-231 cells; Dasatinib 2.0 μM alone) was 56.05% and the “MTT metabolism mean, Assay 2” value (MDA-MB-231 cells; Dasatinib 2.0 μM alone) was 55.89%. For the same compound, the “MTT metabolism mean, Assay 1” value (HBL-100 cells; Dasatinib 0.5 μM alone) was 61.25%, the “MTT metabolism mean, Assay 2” value (HBL-100 cells; Dasatinib 0.5 μM alone) was 65.30% and the “MTT metabolism mean, Assay 1” value (HBL-100 cells; Dasatinib 1.0 μM alone) was 61.08%. For the same compound, the “MTT metabolism mean, Assay 2” value (HBL-100 cells; Dasatinib 1.0 μM alone) was 64.94%, the “MTT metabolism mean, Assay 1” value (HBL-100 cells; Dasatinib 2.0 μM alone) was 58.58% and the “MTT metabolism mean, Assay 2” value (HBL-100 cells; Dasatinib 2.0 μM alone) was 58.48%.

For `CC(=O)O[C@@]12CO[C@@H]1C[C@H](O)[C@@]1(C)C(=O)[C@H](O)C3=C(C)[C@@H](OC(=O)[C@H](O)[C@@H](NC(=O)OC(C)(C)C)c4ccccc4)C[C@@](O)([C@@H](OC(=O)c4ccccc4)[C@H]21)C3(C)C` [Docetaxel, docetaxel], the “MTT metabolism mean, Assay 1” value (MDA-MB-231 cells; Docetaxel 2.5 nM alone) was 84.46%, the “MTT metabolism mean, Assay 2” value (MDA-MB-231 cells; Docetaxel 2.5 nM alone) was 60.92% and the “MTT metabolism mean, Assay 1” value (MDA-MB-231 cells; Docetaxel 5 nM alone) was 69.03%. For the same compound, the “MTT metabolism mean, Assay 2” value (MDA-MB-231 cells; Docetaxel 5 nM alone) was 51.36%, the “MTT metabolism mean, Assay 1” value (MDA-MB-231 cells; Docetaxel 10 nM alone) was 38.17% and the “MTT metabolism mean, Assay 2” value (MDA-MB-231 cells; Docetaxel 10 nM alone) was 44.50%. For the same compound, the “MTT metabolism mean, Assay 1” value (HBL-100 cells; Docetaxel 2.5 nM alone) was 96.93%, the “MTT metabolism mean, Assay 2” value (HBL-100 cells; Docetaxel 2.5 nM alone) was 83.41% and the “MTT metabolism mean, Assay 1” value (HBL-100 cells; Docetaxel 5 nM alone) was 85.11%. For the same compound, the “MTT metabolism mean, Assay 2” value (HBL-100 cells; Docetaxel 5 nM alone) was 70.61%, the “MTT metabolism mean, Assay 1” value (HBL-100 cells; Docetaxel 10 nM alone) was 55.03% and the “MTT metabolism mean, Assay 2” value (HBL-100 cells; Docetaxel 10 nM alone) was 54.59%.

With `CO[C@@H]([C@@H]1Cc2cc3cc(O[C@H]4CC(O[C@H]5CC(O)[C@H](O)C(C)O5)[C@H](O)C(C)O4)c(C)c(O)c3c(O)c2C(=O)[C@H]1O[C@H]1CC(O[C@H]2CC(O[C@H]3CC(O)[C@H](O)C(C)O3)[C@@H](O)C(C)O2)[C@H](O)C(C)O1)[C@@H](O)C(C)=O` (stereo partly drawn) [F(I), demycarosyl-3D-β-D-digitoxosyl-mithramycin SK] the Body weight ([1]; F(I) 12 mg/kg, FIG. 3) was “slight decrease initially”, the Tolerability ([1]; alone or in combination, suggested by body weights, FIG. 6) was “well tolerated” and the IC50 ([2]; 72 hours of treatment, all cell lines (FIG. 1)) was less than 100 nM. The “Effect on MTT metabolism” value ([2]; all the TNBC cell lines studied, 48 or 72 hours, different doses) was “decreased MTT metabolism of all the TNBC cell lines studied in a dose-dependent and time-dependent manner”, the “MTT metabolism mean, Assay 1” value (MDA-MB-231 cells; F(I) 10 nM alone) was 94.27% and the “MTT metabolism mean, Assay 2” value (MDA-MB-231 cells; F(I) 10 nM alone) was 96.65%. For the same compound, the “MTT metabolism mean, Assay 1” value (MDA-MB-231 cells; F(I) 50 nM alone) was 70.05%, the “MTT metabolism mean, Assay 2” value (MDA-MB-231 cells; F(I) 50 nM alone) was 59.26% and the “MTT metabolism mean, Assay 1” value (HBL-100 cells; F(I) 10 nM alone) was 85.52%. The “MTT metabolism mean, Assay 2” value (HBL-100 cells; F(I) 10 nM alone) was 99.53%, the “MTT metabolism mean, Assay 1” value (HBL-100 cells; F(I) 50 nM alone) was 66.35% and the “MTT metabolism mean, Assay 2” value (HBL-100 cells; F(I) 50 nM alone) was 62.85%. The “Toxicity in vivo relative to mithramycin (times less toxic)” value [3] was 10 times, the “F(I) concentration in the tumors” value [4] was 2.2 µg/g and the concentration at 6 h ([4]; female, BALB/c nu/nu, mouse, tumor, iv, 12 mg/kg) was 3800 ng/g. The “Effect on tumor growth” value [5] was “inhibitory effect on tumor growth”.

With `Nc1ccn([C@@H]2O[C@H](CO)[C@@H](O)C2(F)F)c(=O)n1` [Gemcitabine, gemcitabine] the “MTT metabolism mean, Assay 1” value (MDA-MB-231 cells; Gemcitabine 5 nM alone) was 77.29%, the “MTT metabolism mean, Assay 2” value (MDA-MB-231 cells; Gemcitabine 5 nM alone) was 90.99% and the “MTT metabolism mean, Assay 1” value (MDA-MB-231 cells; Gemcitabine 10 nM alone) was 67.76%. For the same compound, the “MTT metabolism mean, Assay 2” value (MDA-MB-231 cells; Gemcitabine 10 nM alone) was 84.33%, the “MTT metabolism mean, Assay 1” value (MDA-MB-231 cells; Gemcitabine 20 nM alone) was 48.14% and the “MTT metabolism mean, Assay 2” value (MDA-MB-231 cells; Gemcitabine 20 nM alone) was 64.95%. The “MTT metabolism mean, Assay 1” value (HBL-100 cells; Gemcitabine 5 nM alone) was 90.75%, the “MTT metabolism mean, Assay 2” value (HBL-100 cells; Gemcitabine 5 nM alone) was 88.93% and the “MTT metabolism mean, Assay 1” value (HBL-100 cells; Gemcitabine 10 nM alone) was 85.93%. The “MTT metabolism mean, Assay 2” value (HBL-100 cells; Gemcitabine 10 nM alone) was 83.52%, the “MTT metabolism mean, Assay 1” value (HBL-100 cells; Gemcitabine 20 nM alone) was 61.98% and the “MTT metabolism mean, Assay 2” value (HBL-100 cells; Gemcitabine 20 nM alone) was 80.59%.

For `CCC1=C[C@@H]2CN(C1)Cc1c([nH]c3ccccc13)[C@@](C(=O)OC)(c1cc3c(cc1OC)N(C)[C@H]1[C@@](O)(C(=O)OC)[C@H](OC(C)=O)[C@]4(CC)C=CCN5CC[C@]31[C@@H]54)C2` [Vinorelbine, vinorelbine], the “MTT metabolism mean, Assay 1” value (MDA-MB-231 cells; Vinorelbine 1 nM alone) was 94.11%, the “MTT metabolism mean, Assay 2” value (MDA-MB-231 cells; Vinorelbine 1 nM alone) was 73.02% and the “MTT metabolism mean, Assay 1” value (MDA-MB-231 cells; Vinorelbine 3 nM alone) was 84.61%. For the same compound, the “MTT metabolism mean, Assay 2” value (MDA-MB-231 cells; Vinorelbine 3 nM alone) was 71.99%, the “MTT metabolism mean, Assay 1” value (MDA-MB-231 cells; Vinorelbine 5 nM alone) was 84.42% and the “MTT metabolism mean, Assay 2” value (MDA-MB-231 cells; Vinorelbine 5 nM alone) was 56.42%.
